{"source": "ChEMBL document CHEMBL5104139", "about": "“A critical update on the strategies towards small molecule inhibitors targeting Serine/arginine-rich (SR) proteins and Serine/arginine-rich proteins related kinases in alternative splicing” (Bioorg Med Chem, 2022)", "key": {"[1]": {"target": "T1, Dual specificity tyrosine-phosphorylation-regulated kinase 1A (Homo sapiens, UniProt Q13627)", "assay": "Inhibition of DYRK1A (unknown origin) at 1 uM relative to control"}, "[2]": {"target": "T1, Dual specificity tyrosine-phosphorylation-regulated kinase 1A"}, "[3]": {"target": "Cyclin-dependent kinase 5 (Homo sapiens, UniProt Q00535)", "sequence (Q00535 whole entry)": "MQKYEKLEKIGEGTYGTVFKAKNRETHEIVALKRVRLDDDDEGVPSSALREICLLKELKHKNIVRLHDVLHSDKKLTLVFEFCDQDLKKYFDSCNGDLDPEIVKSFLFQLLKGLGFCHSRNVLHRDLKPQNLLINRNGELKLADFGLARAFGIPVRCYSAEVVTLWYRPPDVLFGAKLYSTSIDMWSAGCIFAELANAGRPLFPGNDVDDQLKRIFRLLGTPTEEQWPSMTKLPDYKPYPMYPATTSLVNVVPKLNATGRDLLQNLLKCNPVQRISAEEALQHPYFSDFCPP", "assay": "Inhibition of CDK5 (unknown origin)"}, "[4]": {"target": "Glycogen synthase kinase-3 (Homo sapiens, UniProt P49840+P49841)", "assay": "Inhibition of GSK3 (unknown origin)", "format": "protein assay"}, "HL-60": {"test_system": "HL-60", "assay": "Cytotoxicity against HL-60 cells", "format": "functional, cell-based", "conditions": "Homo sapiens"}, "K562": {"test_system": "K562", "assay": "Cytotoxicity against human K562 cells", "format": "functional, cell-based"}, "SRSF protein kinase 2": {"target": "SRSF protein kinase 2 (Homo sapiens, UniProt P78362)", "sequence (P78362 whole entry)": "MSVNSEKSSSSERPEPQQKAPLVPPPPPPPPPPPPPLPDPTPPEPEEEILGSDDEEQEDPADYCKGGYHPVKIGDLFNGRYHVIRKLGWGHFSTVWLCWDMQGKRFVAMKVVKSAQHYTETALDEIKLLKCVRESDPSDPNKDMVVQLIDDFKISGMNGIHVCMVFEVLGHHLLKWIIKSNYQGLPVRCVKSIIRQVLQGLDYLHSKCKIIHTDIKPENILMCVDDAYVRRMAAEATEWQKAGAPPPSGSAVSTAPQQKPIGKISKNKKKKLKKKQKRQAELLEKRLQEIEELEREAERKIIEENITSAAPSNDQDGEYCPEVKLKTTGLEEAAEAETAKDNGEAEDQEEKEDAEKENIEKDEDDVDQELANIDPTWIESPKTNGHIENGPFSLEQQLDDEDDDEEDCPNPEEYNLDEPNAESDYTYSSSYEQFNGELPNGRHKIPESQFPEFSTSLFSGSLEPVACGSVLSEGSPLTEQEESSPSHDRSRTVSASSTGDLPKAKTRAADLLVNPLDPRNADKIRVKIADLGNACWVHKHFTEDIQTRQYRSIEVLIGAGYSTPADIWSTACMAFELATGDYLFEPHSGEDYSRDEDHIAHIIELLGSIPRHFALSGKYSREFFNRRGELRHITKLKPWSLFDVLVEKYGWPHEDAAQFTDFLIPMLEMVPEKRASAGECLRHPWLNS"}, "[5]": {"target": "T2, Serine/arginine-rich splicing factor 6 (Homo sapiens, UniProt Q13247)", "T2 sequence (Q13247 whole entry)": "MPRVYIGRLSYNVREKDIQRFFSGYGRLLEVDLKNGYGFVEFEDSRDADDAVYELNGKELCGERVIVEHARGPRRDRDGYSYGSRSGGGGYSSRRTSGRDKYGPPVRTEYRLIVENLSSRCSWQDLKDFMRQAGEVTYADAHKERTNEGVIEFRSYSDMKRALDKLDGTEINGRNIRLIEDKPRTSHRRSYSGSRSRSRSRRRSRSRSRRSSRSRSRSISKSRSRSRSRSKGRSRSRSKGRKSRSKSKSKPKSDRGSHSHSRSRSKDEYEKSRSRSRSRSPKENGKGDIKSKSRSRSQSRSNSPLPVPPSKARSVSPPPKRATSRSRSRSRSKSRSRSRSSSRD", "assay": "Inhibition of SRSF6 (unknown origin)"}, "[6]": {"target": "Dual specificity protein kinase CLK2 (Homo sapiens, UniProt P49760)", "sequence (P49760 whole entry)": "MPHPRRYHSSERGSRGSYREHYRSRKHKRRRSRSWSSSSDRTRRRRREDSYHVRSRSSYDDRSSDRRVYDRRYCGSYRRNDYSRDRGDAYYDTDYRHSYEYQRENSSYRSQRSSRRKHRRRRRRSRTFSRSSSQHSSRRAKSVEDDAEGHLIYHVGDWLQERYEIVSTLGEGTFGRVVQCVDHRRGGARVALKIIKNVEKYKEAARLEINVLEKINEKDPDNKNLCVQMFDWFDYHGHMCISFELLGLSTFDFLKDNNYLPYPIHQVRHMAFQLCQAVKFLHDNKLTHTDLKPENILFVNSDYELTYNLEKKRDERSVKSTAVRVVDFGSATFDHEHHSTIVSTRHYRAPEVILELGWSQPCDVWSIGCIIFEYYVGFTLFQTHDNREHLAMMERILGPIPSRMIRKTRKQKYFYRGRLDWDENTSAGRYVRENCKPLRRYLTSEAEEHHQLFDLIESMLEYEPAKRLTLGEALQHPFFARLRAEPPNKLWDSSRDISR"}, "SRSF protein kinase 1": {"target": "SRSF protein kinase 1 (Homo sapiens, UniProt Q96SB4)", "sequence (Q96SB4 whole entry)": "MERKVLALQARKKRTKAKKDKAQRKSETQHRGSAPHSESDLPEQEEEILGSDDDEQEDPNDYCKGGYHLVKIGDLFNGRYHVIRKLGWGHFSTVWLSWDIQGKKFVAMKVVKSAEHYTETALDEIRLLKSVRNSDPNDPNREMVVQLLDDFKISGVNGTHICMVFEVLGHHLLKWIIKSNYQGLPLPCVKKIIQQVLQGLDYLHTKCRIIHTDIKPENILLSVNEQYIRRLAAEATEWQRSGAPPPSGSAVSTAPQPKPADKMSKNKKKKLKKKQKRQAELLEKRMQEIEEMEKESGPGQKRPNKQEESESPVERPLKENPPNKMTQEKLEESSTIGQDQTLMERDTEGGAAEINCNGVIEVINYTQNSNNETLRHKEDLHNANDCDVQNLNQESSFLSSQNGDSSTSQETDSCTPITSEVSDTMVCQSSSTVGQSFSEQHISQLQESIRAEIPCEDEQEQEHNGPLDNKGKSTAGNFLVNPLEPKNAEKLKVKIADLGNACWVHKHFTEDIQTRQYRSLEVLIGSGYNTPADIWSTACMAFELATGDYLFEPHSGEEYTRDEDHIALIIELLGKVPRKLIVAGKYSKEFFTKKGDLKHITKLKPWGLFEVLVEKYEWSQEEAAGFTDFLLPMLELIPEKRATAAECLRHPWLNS"}}}
{"smiles": "c1cc(-c2ccc3[nH]ncc3c2)ccn1", "values": [{"measurement": "inhibition", "setting": "[1]", "result": 84, "unit": "%"}]}
{"smiles": "C.O=c1oc2cc(O)ccc2c2c1[nH]c1ccccc12", "values": [{"measurement": "IC50", "setting": "[2]", "result": 74, "unit": "nM"}, {"measurement": "IC50", "setting": "[3]", "result": 2700, "unit": "nM"}, {"measurement": "IC50", "setting": "[4]", "result": 380, "unit": "nM"}]}
{"smiles": "COc1cc(/C=C2/C(=N)N3N=C(C(F)(F)F)SC3=NC2=O)ccc1O", "values": [{"measurement": "IC50", "setting": "HL-60", "result": 44700, "unit": "nM"}, {"measurement": "IC50", "setting": "K562", "result": 44700, "unit": "nM"}, {"measurement": "IC50", "setting": "SRSF protein kinase 2", "result": 203, "unit": "nM"}]}
{"smiles": "CCc1cc2c(cc1CC)CC(NC[C@H](O)c1ccc(O)c3[nH]c(=O)ccc13)C2", "note": "[INDACATEROL]", "values": [{"measurement": "IC50", "setting": "[5]", "result": 19000, "unit": "nM"}]}
{"smiles": "O=c1oc2cc(O)ccc2c2c1[nH]c1ccc(O)cc12", "values": [{"measurement": "IC50", "setting": "[2]", "result": 67, "unit": "nM"}, {"measurement": "IC50", "setting": "[3]", "result": 720, "unit": "nM"}, {"measurement": "IC50", "setting": "[4]", "result": 310, "unit": "nM"}]}
{"smiles": "O=C(Oc1cc(O)c2c(c1)OC(c1cc(O)c(O)c(O)c1)CC2)c1cc(O)c(O)c(O)c1", "note": "(stereo not drawn)", "values": [{"measurement": "IC50", "setting": "[6]", "result": 2700, "unit": "nM"}]}
{"smiles": "O=C(Nc1cc(C(F)(F)F)ccc1N1CCCCC1)c1ccncc1", "values": [{"measurement": "IC50", "setting": "SRSF protein kinase 1", "result": 890, "unit": "nM"}]}
